The source of these data is patent US7910135B2, “Hydrogel wound dressing and biomaterials formed in situ and their uses” (ULURU Inc., priority 2006, dated 2011).

Data set [1] is described as follows: Release of lidocaine or erythromycin from nanoparticle aggregates in PBS. The data set is classed as physicochemical. To be noted: dry blended with pHEMA or HEMA/GMA copolymer powder, aggregate formed in PBS.
Source text: Poly-HEMA nanoparticle powder and HEMA/GMA copolymer nanoparticle powders were dry blended with lidocaine or erythromycin powder and upon exposure to PBS, aggregates formed trapping the active between the particles comprising the aggregate.
The test system of data set [2] is metalloproteases. Particulars: cited from earlier work.

Molecules are shown by their SMILES.

`CCN(CC)CC(=O)Nc1c(C)cccc1C` [lidocaine]: the “Change of release rate as the glycerol methacrylate comonomer is increased” value in data set [1] was “released at a slower rate”.
Consider `CC[C@H]1OC(=O)[C@H](C)[C@@H](O[C@H]2C[C@@](C)(OC)[C@@H](O)[C@H](C)O2)[C@H](C)[C@@H](O[C@@H]2O[C@H](C)C[C@H](N(C)C)[C@H]2O)[C@](C)(O)C[C@@H](C)C(=O)[C@H](C)[C@@H](O)[C@]1(C)O` [erythromycin], for which the “Change of release rate as the glycerol methacrylate comonomer is increased” value in data set [1] is listed as “increases”.
For the compound `c1cnc2c(c1)ccc1cccnc12` [1,10 phenanthroline], in data set [2], the Effective concentration is given as 0.1 mmol/L.
